Data set [1] in a line: Thermodynamic solubility, shake flask method. It is filed as physicochemical. Conditions: PBS buffer; PBS pH 7.4, 24 h at 37°C. Here is the method: (§1) APHAD S.r.l (Buccinasco, MI, Italy) performed all evaluations. Detailed protocols are reported in the extended methods section.
Thermodynamic solubility. The shake flask method measured the thermodynamic solubility of K4 and K5 in PBS buffers at pH 7.4. A saturated solution of the compounds was prepared by incubating the 2 compounds in PBS buffer for 24 h at 37°C under agitation. At the end of the incubation, samples were centrifuged, two aliquots were diluted in acetonitrile (CAN), and each sample was then injected into LC-MS/MS (ESI interface) and quantified on a calibration curve prepared by sequential dilution in ACN. Samples were analyzed on UPLC Acquity (Waters) interfaced with API 3200 (AB Sciex) Triple Quadrupole Mass spectrometer. For K4, a Synergy Polar C18 column was used (50x2, 1mm 5µm, Phenomenex, Temp 35°C, Inj volume 10 µL, mobile phase A: water +0.1% FA, and phase B: ACN 0.1% FA, gradient: 5%-98% B, flow: 0.3 mL/min). For K5, a Gemini NX C18 column was used (50x2, 1mm 5µm, Phenomenex, Temp 35°C, Inj volume 10 µL, mobile phase A: 5mM ammonium formate +0.1% FA, and phase B: MeOH +5%, gradient: 5%-98% B, flow: 0.3 mL/min).

A short description of data set [2]: Bidirectional permeability in Caco-2 cells. It is filed as in vitro ADME. The settings on record: 5 µM, HBSS pH 7.4, 2 hours. Here is the method: as §1
Permeability in Caco-2 cells. To evaluate the bidirectional permeability of the 2 compounds, Caco-2 cells (ECACC, ReadyCells, Barcellona, Spain), considered a reference cellular line for in vitro preclinical evaluation of oral dosage products, were used. These cells are cultured in monolayers, which become differentiated polarized epithelial cells after 21 days, expressing tight junctions, microvilli, intracellular metabolic enzymes, and transmembrane transporters such as BCRP, MDR1, and MRP2 (an artificial model equivalent to the intestinal epithelium). […] At the end of the experiment, the integrity of the cellular junction was measured by incubating the Lucifer yellow (LY) at the apical side (at the concentration of 0.02 mg/mL in MEM medium) and with MEM medium in the basolateral compartment for 1 hour at 37°C. At the end of incubation, fluorescence was read on a fluorimeter at λ 430-538nm. Samples were analyzed on a UPLC Acquity (Waters) coupled with an API 3200 Triple Quadrupole AB Sciex. […] The apparent permeability (Papp), the efflux ratio (ER), and the Recovery (R) were calculated to allow for estimation of metabolism and non-specific binding. […] Data are expressed as mean of n=2 (± SD).

A further data set deals with HSP90α (Homo sapiens, UniProt P07900). The experiment in a line: HSP90 N-Terminal Domain Assay Kit, fluorescence polarization competition with FITC-Geldanamycin. It counts as binding. On the set-up: purchased BPS Bioscience 50293. Conditions: dose-response 1 pM to 10 μM, n = 3, extrapolated with GraphPad Prism; read-out: HSP90α inhibition IC50. Here is the method:
HSP90‐directed inhibitory activity was assessed employing the HSP90 N‐Terminal Domain Assay Kit (BPS Bioscience) according to the manufacturer's instructions. The fluorescence intensity was measured with a multiplate reader (Victor Nivo‐Perkin Elmer). The IC50 was calculated by analyzing the data using GraphPad Prism 10 software.
HSP90 inhibition activity assay. […] […] […] Data are the percentage of residual enzyme activity relative to the solvent (DMSO). The IC50s were calculated by analyzing the data using GraphPad Prism 10 software.

Another data set deals with T1, TRAP1 (Homo sapiens, UniProt Q12931).
T1 sequence (Q12931 60-704): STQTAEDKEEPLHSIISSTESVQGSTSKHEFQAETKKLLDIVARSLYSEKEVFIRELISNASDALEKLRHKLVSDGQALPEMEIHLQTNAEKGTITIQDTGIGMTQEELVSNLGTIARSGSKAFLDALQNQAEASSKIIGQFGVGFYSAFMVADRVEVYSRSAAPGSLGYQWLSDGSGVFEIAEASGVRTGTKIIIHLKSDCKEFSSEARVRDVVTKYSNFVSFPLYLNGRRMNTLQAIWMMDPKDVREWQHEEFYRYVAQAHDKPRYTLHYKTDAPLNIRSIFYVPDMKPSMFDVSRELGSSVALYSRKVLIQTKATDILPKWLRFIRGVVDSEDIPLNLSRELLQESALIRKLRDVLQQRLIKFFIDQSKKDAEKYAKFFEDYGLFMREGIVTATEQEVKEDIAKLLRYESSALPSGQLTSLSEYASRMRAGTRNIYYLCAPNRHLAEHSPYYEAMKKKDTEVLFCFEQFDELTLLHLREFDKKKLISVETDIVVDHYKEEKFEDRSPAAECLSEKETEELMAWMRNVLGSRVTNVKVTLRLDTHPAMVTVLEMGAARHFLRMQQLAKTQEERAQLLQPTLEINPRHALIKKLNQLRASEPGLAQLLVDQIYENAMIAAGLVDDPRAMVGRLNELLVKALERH
The experiment in a line: Cellular thermal shift assay (CETSA) on cellular lysates, TRAP1. The settings on record: 46°C, compound 0.5 mM.

The next data set concerns the target HSP90β (Homo sapiens, UniProt P08238). As to the kind of experiment: Cellular thermal shift assay (CETSA) on cellular lysates, HSP90β. The settings on record: 46°C, compound 0.5 mM.

The values that follow come from article PMC12266748, “A Xanthine Derivative With Novel Heat Shock Protein 90‐Alpha Inhibitory and Senolytic Properties” (Aging Cell, 2025).

Sequence of HSP90β (P08238 whole entry): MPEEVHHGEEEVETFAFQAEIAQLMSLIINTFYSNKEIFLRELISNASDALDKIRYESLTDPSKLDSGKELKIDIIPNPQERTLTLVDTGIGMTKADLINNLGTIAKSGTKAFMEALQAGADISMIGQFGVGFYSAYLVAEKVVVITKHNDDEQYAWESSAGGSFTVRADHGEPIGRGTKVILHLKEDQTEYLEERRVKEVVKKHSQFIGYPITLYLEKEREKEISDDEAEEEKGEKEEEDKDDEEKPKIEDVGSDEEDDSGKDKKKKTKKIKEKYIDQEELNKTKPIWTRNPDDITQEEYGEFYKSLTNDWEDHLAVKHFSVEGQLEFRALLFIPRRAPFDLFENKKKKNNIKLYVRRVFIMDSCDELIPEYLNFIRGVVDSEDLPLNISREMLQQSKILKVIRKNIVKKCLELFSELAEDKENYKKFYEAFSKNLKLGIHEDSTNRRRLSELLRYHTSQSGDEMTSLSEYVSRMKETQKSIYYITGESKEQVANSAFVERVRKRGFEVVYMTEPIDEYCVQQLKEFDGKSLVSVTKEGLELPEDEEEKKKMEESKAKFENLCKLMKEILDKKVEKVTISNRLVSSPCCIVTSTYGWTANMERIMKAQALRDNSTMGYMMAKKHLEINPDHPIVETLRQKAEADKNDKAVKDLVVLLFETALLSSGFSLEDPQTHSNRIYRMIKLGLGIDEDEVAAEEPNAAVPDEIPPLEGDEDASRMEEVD
Protocol for HSP90β: (§2) Cellular Thermal Shift Assay (CETSA). […] Briefly, the cellular extract was lysed in RIPA buffer (10 mM Tris-HCl pH 7.4, 250 mM NaCl, 1% NP40/IGEPAL, 1% DOC, 0.01% SDS, 0.01% Glycerol, supplemented with protease/phosphatase inhibitor, PI/PhI mix and 2 mM DTT) and protein concentration was determined by a BCA kit (Pierce, Life Technologies, TFS, Waltham, MA, USA). Samples were homogenized by 3 cycles of freeze-thawing using liquid nitrogen and centrifuged at 13000 rpm at 4 °C for 30 min to separate the soluble fraction from the debris.
(§3) Following the supplier's recommendations, samples were loaded into the proper cartridge (12- 230 kDa Wes/Jess Separation Modules, ProteinSimple, Biotechne, Minneapolis, MN, USA). HSP90α (1:50, MsMAb, Abcam), HSP90β (1:50, RbMAb, Abcam), GRP94 (1:50, RbMAb, Abcam), TRAP1 (1:50, MsMAb, Abcam), α-Tubulin (1:500, MsMAb, Abcam), and β-Actin (1:500, RbMAb, Abcam) were used as primary antibodies. Secondary antibodies were Anti-Mouse Secondary HRP and Anti-Rabbit Secondary HRP (ProteinSimple, Biotechne, Minneapolis, MN, USA).
Protocol for TRAP1: as §2, §3

For `CC(C)(C)S(=O)(=O)C/C(N)=N/OS(=O)(=O)c1ccc(F)cc1F` [Compound K4, (Z)-N'-[(2,4-difluorobenzenesulfonyl)oxy]-2-(2-methylpropane-2-sulfonyl)ethanimidamide], the solubility (thermodynamic) (in general, the concentration in solution at equilibrium with solid) at 24 h in data set [1] is roughly 400 µg/mL. The Caco-2 bidirectional permeability entry in data set [2] is given as “no K4 signal was detected”. Besides, the IC50 (usually the concentration that inhibits the measured activity by half) at HSP90α was 155 nM. Besides, the “stabilization of TRAP1 in CETSA” value at TRAP1 is listed as “did not observe a stabilization”. For the same compound, the “stabilization of HSP90β in CETSA” value on HSP90β is “did not observe a stabilization”.

Turning to `Cc1ccccc1-n1c(=O)n(Cc2ccccc2)c(=O)c2[nH]cnc21` [Compound K5, 1-benzyl-3-(2-methylphenyl)-7H-purine-2,6-dione], the solubility (thermodynamic) at 24 h in data set [1] was roughly 200 µg/mL. The Caco-2 bidirectional permeability entry in data set [2] is “excellent permeability in both directions”. For the same compound, on HSP90α, the IC50 was 111 nM. For the same compound, at TRAP1, the “stabilization of TRAP1 in CETSA” value was “did not observe a stabilization”. Further, the “stabilization of HSP90β in CETSA” value at HSP90β is “did not observe a stabilization”.
